Data taken from patent US20170189504A1, “NOVEL PEPTIDES AND COMBINATION OF PEPTIDES FOR USE IN IMMUNOTHERAPY AGAINST VARIOUS CANCERS” (immatics biotechnologies GmbH, priority 2015, published 2017).

What was measured:
CD8+ T cells = assay: In vitro immunogenicity: T-cell priming with aAPCs loaded with peptide/MHC complexes and anti-CD28 antibody, pMHC multimer readout (Tables 19A, 19B); type: cell-based, human; settings: in vitro immunogenicity of HLA class I peptides, pMHC multimer readout after priming of CD8+ T cells
Procedure: In an aspect, the peptides are pre-screened for immunogenicity before being included in the warehouse. By way of example, and not limitation, the immunogenicity of the peptides included in the warehouse is determined by a method comprising in vitro T-cell priming through repeated stimulations of CD8+ T cells from healthy donors with artificial antigen presenting cells loaded with peptide/MHC complexes and anti-CD28 antibody.
In order to obtain information regarding the immunogenicity of the TUMAPs of the present invention, the inventors performed investigations using an in vitro T-cell priming assay based on repeated stimulations of CD8+ T cells with artificial antigen presenting cells (aAPCs) loaded with peptide/MHC complexes and anti-CD28 antibody.
In order to perform in vitro stimulations by artificial antigen presenting cells loaded with peptide-MHC complex (pMHC) and anti-CD28 antibody, the inventors first isolated CD8+ T cells from fresh HLA-A*02 leukapheresis products via positive selection using CD8 microbeads (Miltenyi Biotec, Bergisch-Gladbach, Germany) of healthy donors obtained from the University clinics Mannheim, Germany, after informed consent.
PBMCs and isolated CD8+ lymphocytes were incubated in T-cell medium (TCM) until use consisting of RPMI-Glutamax (Invitrogen, Karlsruhe, Germany) supplemented with 10% heat inactivated human AB serum (PAN-Biotech, Aidenbach, Germany), 100 U/ml Penicillin/100 μg/ml Streptomycin (Cambrex, Cologne, Germany), 1 mM sodium pyruvate (CC Pro, Oberdorla, Germany), 20 μg/ml Gentamycin (Cambrex). 2.5 ng/ml IL7 (PromoCell, Heidelberg, Germany) and 10 U/ml IL-2 (Novartis Pharma, Nurnberg, Germany) were also added to the TCM at this step.
Generation of pMHC/anti-CD28 coated beads, T-cell stimulations and readout was performed in a highly defined in vitro system using four different pMHC molecules per stimulation condition and 8 different pMHC molecules per readout condition.
The purified co-stimulatory mouse IgG2a anti human CD28 Ab 9.3 (Jung et al., 1987) was chemically biotinylated using Sulfo-N-hydroxysuccinimidobiotin as recommended by the manufacturer (Perbio, Bonn, Germany). Beads used were 5.6 μm diameter streptavidin coated polystyrene particles (Bangs Laboratories, Illinois, USA).
pMHC used for positive and negative control stimulations were A*0201/MLA-001 (peptide […] (SEQ ID NO. 303) from modified Melan-A/MART-1) and A*0201/DDX5-001 ([…] from DDX5, SEQ ID NO. 304), respectively.
800.000 beads/200 μl were coated in 96-well plates in the presence of 4×12.5 ng different biotin-pMHC, washed and 600 ng biotin anti-CD28 were added subsequently in a volume of 200 μl. Stimulations were initiated in 96-well plates by co-incubating […] CD8+ T cells with 2×10^5 washed coated beads in 200 μl TCM supplemented with 5 ng/ml IL-12 (PromoCell) for 3 days at 37° C. Half of the medium was then exchanged by fresh TCM supplemented with 80 U/ml IL-2 and incubating was continued for 4 days at 37° C. This stimulation cycle was performed for a total of three times. For the pMHC multimer readout using 8 different pMHC molecules per condition, a two-dimensional combinatorial coding approach was used as previously described (Andersen et al., 2012) with minor modifications encompassing coupling to 5 different fluorochromes. Finally, multimeric analyses were performed by staining the cells with Live/dead near IR dye (Invitrogen, Karlsruhe, Germany), CD8-FITC antibody clone SK1 (BD, Heidelberg, Germany) and fluorescent pMHC multimers. For analysis, a BD LSRII SORP cytometer equipped with appropriate lasers and filters was used. Peptide specific cells were calculated as percentage of total CD8+ cells. Evaluation of multimeric analysis was done using the FlowJo software (Tree Star, Oreg., USA). In vitro priming of specific multimer+ CD8+ lymphocytes was detected by comparing to negative control stimulations.

HLA-A*24 = assay: MHC binding assay, UV-ligand exchange with β2m ELISA, HLA-A*24 (Table 21); set-up: species or system human; settings: binding to HLA-A*24 ranged by peptide exchange yield (UV-ligand exchange, β2m ELISA)
Text: Candidate peptides for T cell based therapies according to the present invention were further tested for their MHC binding capacity (affinity). The individual peptide-MHC complexes were produced by UV-ligand exchange, where a UV-sensitive peptide is cleaved upon UV-irradiation, and exchanged with the peptide of interest as analyzed. Only peptide candidates that can effectively bind and stabilize the peptide-receptive MHC molecules prevent dissociation of the MHC complexes. To determine the yield of the exchange reaction, an ELISA was performed based on the detection of the light chain ((β2m) of stabilized MHC complexes. The assay was performed as generally described in Rodenko et al. (Rodenko et al., 2006).
96 well MAXISorp plates (NUNC) were coated over night with 2 ug/ml streptavidin in PBS at room temperature, washed 4× and blocked for 1 h at 37° C. in 2% BSA containing blocking buffer. Refolded HLA-A*02:01/MLA-001 monomers served as standards, covering the range of 15-500 ng/ml. Peptide-MHC monomers of the UV-exchange reaction were diluted 100 fold in blocking buffer. Samples were incubated for 1 h at 37° C., washed four times, incubated with 2 ug/ml HRP conjugated anti-β2m for 1 h at 37° C., washed again and detected with TMB solution that is stopped with […]. Absorption was measured at 450 nm. Candidate peptides that show a high exchange yield (preferably higher than 50%, most preferred higher than 75%) are generally preferred for a generation and production of antibodies or fragments thereof, and/or T cell receptors or fragments thereof, as they show sufficient avidity to the MHC molecules and prevent dissociation of the MHC complexes.

HLA-A*02 = assay: MHC binding assay, UV-ligand exchange with β2m ELISA, HLA-A*02 (Table 20); set-up: species or system human; settings: binding to HLA-A*02 ranged by peptide exchange yield (UV-ligand exchange, β2m ELISA)
How it was run: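 Peptide–MHC complexes made by UV-ligand exchange of a UV-cleavable peptide, diluted 100-fold and captured on streptavidin plates. Stabilized complexes detected by HRP anti-β2m ELISA (1 h, 37° C, A450). Exchange yield derived against refolded HLA-A*02:01/MLA-001 monomer standards (15-500 ng/ml).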

Substance | Wells positive [%] (CD8+ T cells) | Peptide exchange (HLA-A*24) | Peptide exchange (HLA-A*02)
204 (TYELRYFQI; listed as Homo sapiens) [compound 204] | + (<20% = +) | ++++ (≧75% = ++++) | 
268 (QYLGQIQHI; listed as Homo sapiens) [compound 268] | + (<20% = +) | +++ (50%-75% = +++) | 
285 (HYPPVQVLF; listed as Homo sapiens) [compound 285] | + (<20% = +) | +++ (50%-75% = +++) | 
173 (IYSWILDHF; listed as Homo sapiens) [compound 173] | ++ (20%-49% = ++) | ++++ (≧75% = ++++) | 
207 (AYVVFVSTL; listed as Homo sapiens) [compound 207] | + (<20% = +) | ++ (20%-49% = ++) | 
248 (YLDRFLAGV; listed as Homo sapiens) [compound 248] | ++ (20%-49% = ++) |  | ++++ (≧75% = ++++)
158 (HYSQELSLLYL; listed as Homo sapiens) [compound 158] | + (<20% = +) | ++++ (≧75% = ++++) | 
27 (RLMEENWNA; listed as Homo sapiens) [compound 27] | +++ (50%-69% = +++) |  | +++ (50%-75% = +++)
166 (YYVESGKLF; listed as Homo sapiens) [compound 166] | +++ (50%-69% = +++) | ++++ (≧75% = ++++) | 
168 (KYQDILETI; listed as Homo sapiens) [compound 168] | ++ (20%-49% = ++) | ++++ (≧75% = ++++) | 
247 (ALYEGYATV; listed as Homo sapiens) [compound 247] | ++ (20%-49% = ++) |  | +++ (50%-75% = +++)
29 (YLLDPSITL; listed as Homo sapiens) [compound 29] | + (<20% = +) |  | +++ (50%-75% = +++)
232 (KIFPAALQLV; listed as Homo sapiens) [compound 232] | ++ (20%-49% = ++) |  | +++ (50%-75% = +++)
92 (GLLFSLRSV; listed as Homo sapiens) [compound 92] | ++ (20%-49% = ++) |  | ++++ (≧75% = ++++)
31 (TITETTVEV; listed as Homo sapiens) [compound 31] | + (<20% = +) |  | +++ (50%-75% = +++)
151 (SVLDSTAKV; listed as Homo sapiens) [compound 151] | ++ (20%-49% = ++) |  | ++ (20%-49% = ++)

Substance | Wells positive [%] (CD8+ T cells) | Peptide exchange (HLA-A*24) | Peptide exchange (HLA-A*02)
23 (SLFSDEFKV; listed as Homo sapiens) [compound 23] | ++++ (≧70% = ++++) |  | +++ (50%-75% = +++)
35 (FLLPFSTVYL; listed as Homo sapiens) [compound 35] | + (<20% = +) |  | +++ (50%-75% = +++)
235 (KIIDFLSAL; listed as Homo sapiens) [compound 235] | +++ (50%-69% = +++) |  | +++ (50%-75% = +++)
14 (ILAKDLFEI; listed as Homo sapiens) [compound 14] | ++ (20%-49% = ++) |  | ++++ (≧75% = ++++)
90 (FLQDLEQRL; listed as Homo sapiens) [compound 90] | + (<20% = +) |  | +++ (50%-75% = +++)
249 (GLCERLVSL; listed as Homo sapiens) [compound 249] | + (<20% = +) |  | ++++ (≧75% = ++++)
96 (LLVSHLYLV; listed as Homo sapiens) [compound 96] | ++ (20%-49% = ++) |  | ++ (20%-49% = ++)
141 (FLDKVLVAA; listed as Homo sapiens) [compound 141] | + (<20% = +) |  | +++ (50%-75% = +++)
7 (ILDHEVPSL; listed as Homo sapiens) [compound 7] | ++ (20%-49% = ++) |  | +++ (50%-75% = +++)
138 (ALLAKILQI; listed as Homo sapiens) [compound 138] | ++ (20%-49% = ++) |  | +++ (50%-75% = +++)
12 (GLLPLLHRA; listed as Homo sapiens) [compound 12] | ++++ (≧70% = ++++) |  | ++++ (≧75% = ++++)
5 (GIVAHIQEV; listed as Homo sapiens) [compound 5] | + (<20% = +) |  | +++ (50%-75% = +++)
229 (AILAHLNTV; listed as Homo sapiens) [compound 229] | ++ (20%-49% = ++) |  | ++++ (≧75% = ++++)
144 (ALLAFFPGL; listed as Homo sapiens) [compound 144] | +++ (50%-69% = +++) |  | +++ (50%-75% = +++)
26 (ALQEELTEL; listed as Homo sapiens) [compound 26] | + (<20% = +) |  | +++ (50%-75% = +++)
